Key:
[1] = test system: RPMI8226 multiple myeloma cells; assay: combination of SAHA and CEM451 with RPMI8226 multiple myeloma cells; type: cell-based; details: for Effect of SAHA / Effect of CEM451: RPMI8226
[2] = test system: Hut78 cells; assay: combination study of HDAC inhibitors and CEM451 with Hut78 cells; type: cell-based; details: for Effect of SAHA / Effect of CEM451 / Effect of Romidepsin: Hut78
[3] = test system: K562 CML cells; assay: cell-based assay, K562 CML cells; details: Homo sapiens, read-out: IC50 against K562 CML cells
Description: (§1) Quinazoline derivatives were initially tested with various cancer types of cell lines using a cell-based assay.

[4] = molecular target: p38 MAPK alpha (Homo sapiens, UniProt Q16539); assay: in vitro kinase assay, p38 MAPK alpha catalytic activity; type: biochemical
Description: (§2) FIGS. 6A-6C. In vitro kinase assays for p38a (FIG. 6A), p38β(FIG. 6B), and […] (FIG. 6C) at 100 nM.
as §1

[5] = test system: hematopoietic cell lines; assay: antitumor activity against hematopoietic cell lines; type: cell-based
Description: as §1

[6] = molecular target: p38 MAPK beta (Homo sapiens, UniProt Q15759); assay: in vitro kinase assay, p38 MAPK beta catalytic activity; type: biochemical
Description: as §2, §1

Sequence of p38 MAPK alpha (Q16539 whole entry): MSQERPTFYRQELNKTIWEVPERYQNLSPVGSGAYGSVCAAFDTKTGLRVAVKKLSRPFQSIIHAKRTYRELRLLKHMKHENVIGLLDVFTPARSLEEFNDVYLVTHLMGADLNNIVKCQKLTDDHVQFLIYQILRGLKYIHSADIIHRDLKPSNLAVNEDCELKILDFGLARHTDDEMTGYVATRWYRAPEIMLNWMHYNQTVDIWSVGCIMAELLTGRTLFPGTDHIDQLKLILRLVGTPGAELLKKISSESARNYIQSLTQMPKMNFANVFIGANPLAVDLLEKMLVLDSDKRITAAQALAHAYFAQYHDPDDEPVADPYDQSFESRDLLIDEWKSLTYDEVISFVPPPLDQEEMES
Sequence of p38 MAPK beta (Q15759 whole entry): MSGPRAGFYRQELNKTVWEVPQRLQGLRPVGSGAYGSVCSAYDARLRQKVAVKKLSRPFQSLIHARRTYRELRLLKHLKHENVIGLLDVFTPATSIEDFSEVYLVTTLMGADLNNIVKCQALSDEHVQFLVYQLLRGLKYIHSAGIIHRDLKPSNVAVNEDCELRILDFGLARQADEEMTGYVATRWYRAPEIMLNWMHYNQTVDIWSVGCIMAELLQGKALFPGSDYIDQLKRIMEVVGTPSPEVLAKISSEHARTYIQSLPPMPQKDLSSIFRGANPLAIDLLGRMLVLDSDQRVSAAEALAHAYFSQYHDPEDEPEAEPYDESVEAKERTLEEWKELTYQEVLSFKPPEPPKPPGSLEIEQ

For `O=C(CCCCCCC(=O)Nc1ccccc1)NO` [SAHA, reference compound], the “Effect of SAHA” value ([1]; SAHA 0.6 μM) was 0.63, the “Effect of SAHA” value ([1]; SAHA 0.9 μM) was 0.8 and the “Effect of SAHA” value ([1]; SAHA 1.2 μM) was 0.91. The “Effect of SAHA” value ([2]; high doses study, SAHA 0.6 μM) was 0.16, the “Effect of SAHA” value ([2]; high doses study, SAHA 0.9 μM) was 0.27 and the “Effect of SAHA” value ([2]; high doses study, SAHA 1.2 μM) was 0.74. For the same compound, the “Effect of SAHA” value ([2]; low doses study, SAHA 0.6 μM) was 0.3, the “Effect of SAHA” value ([2]; low doses study, SAHA 0.9 μM) was 0.59 and the “Effect of SAHA” value ([2]; low doses study, SAHA 1.2 μM) was 0.84.

In the case of `Cc1ccc(NC(=O)c2cccc(C(F)(F)F)c2)cc1Nc1ncnc2nc(NC3CC3)ncc12` [CEM451, N-(3-((7-(cyclopropylamino)pyrimido[4,5-d]pyrimidin-4-yl)amino)-4-methylphenyl)-3-(trifluoromethyl)benzamide], the IC50 [3] is reported as 540 nM, the IC50 [4] is reported as 6.2 nM and the “Effect of CEM451” value ([1]; CEM451 5 μM) is reported as 0.47. The “Effect of CEM451” value ([1]; CEM451 10 μM) was 0.71, the “Effect of CEM451” value ([1]; CEM451 15 μM) was 0.81 and the “effect in combination with SAHA” value ([1]; RPMI8226 MM cells) was “synergistic effects”. The “Effect of CEM451” value ([2]; Romidepsin combination study, CEM451 5 μM) was 0.57, the “Effect of CEM451” value ([2]; Romidepsin combination study, CEM451 10 μM) was 0.72 and the “Effect of CEM451” value ([2]; Romidepsin combination study, CEM451 15 μM) was 0.83. For the same compound, the “Effect of CEM451” value ([2]; high doses study with SAHA, CEM451 5 μM) was 0.48, the “Effect of CEM451” value ([2]; high doses study with SAHA, CEM451 10 μM) was 0.65 and the “Effect of CEM451” value ([2]; high doses study with SAHA, CEM451 15 μM) was 0.81. The “Effect of CEM451” value ([2]; low doses study, CEM451 0.5 μM) was 0.24, the “Effect of CEM451” value ([2]; low doses study, CEM451 1 μM) was 0.26 and the “Effect of CEM451” value ([2]; low doses study, CEM451 3 μM) was 0.45. The “effect in combination with SAHA” value ([2]; Hut78 CTCL cells) was “synergistic effects”, the “antitumor activities against hematopoietic cell lines” value [5] was “broadly showed antitumor activities” and the IC50 [6] was 13 nM.

In the case of `C/C=C1\NC(=O)[C@H]2CSSCC/C=C/[C@H](CC(=O)N[C@H](C(C)C)C(=O)N2)OC(=O)[C@H](C(C)C)NC1=O` [Romidepsin, reference compound], the “Effect of Romidepsin” value ([2]; Romidepsin 0.001 μM) is reported as 0.1, the “Effect of Romidepsin” value ([2]; Romidepsin 0.0015 μM) is reported as 0.58 and the “Effect of Romidepsin” value ([2]; Romidepsin 0.002 μM) is reported as 0.92.

Reference: patent US20250152593A1, “p38 MAPK INHIBITORS AND USES THEREOF” (CITY OF HOPE, priority 2023, published 2025)
